Results reported in publication PMC9090415, “Discovery of small molecule inhibitors of Plasmodium falciparum apicoplast DNA polymerase” (Journal of Enzyme Inhibition and Medicinal Chemistry, 2022).

Target: P. falciparum apicoplast DNA polymerase (Pf-apPOL) (Plasmodium falciparum, UniProt Q8ILY1)
Experiment: Fluorescence-based high-throughput DNA polymerase assay (molecular beacon), primary screen and dose-response
Type: biochemical
Settings: for DNA Pol: 90 min, 10 µM; for % inhibition apPOL 180' 2.5 / % inhibition apPOL 180' 5 / % inhibition apPOL 180' 10 / % inhibition apPOL 180' 20 / % inhibition apPOL 180' 40 / % inhibition apPOL 180' 80: read at 180'
In short: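 Single-point screening used 10 µM compound with 20 nM polymerase, 20 nM hairpin substrate and 6 µM dNTPs for 90 min at 25 °C. Confirmatory titrations (2.5–80 µM) followed fluorescence at three times, and IC50 was derived from a fit including a cooperativity term n.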

[1] = 'DNA Pol' of the 186 hits list (primary screen value)

P. falciparum apicoplast DNA polymerase (Pf-apPOL), sequence (Q8ILY1 entry or part of it): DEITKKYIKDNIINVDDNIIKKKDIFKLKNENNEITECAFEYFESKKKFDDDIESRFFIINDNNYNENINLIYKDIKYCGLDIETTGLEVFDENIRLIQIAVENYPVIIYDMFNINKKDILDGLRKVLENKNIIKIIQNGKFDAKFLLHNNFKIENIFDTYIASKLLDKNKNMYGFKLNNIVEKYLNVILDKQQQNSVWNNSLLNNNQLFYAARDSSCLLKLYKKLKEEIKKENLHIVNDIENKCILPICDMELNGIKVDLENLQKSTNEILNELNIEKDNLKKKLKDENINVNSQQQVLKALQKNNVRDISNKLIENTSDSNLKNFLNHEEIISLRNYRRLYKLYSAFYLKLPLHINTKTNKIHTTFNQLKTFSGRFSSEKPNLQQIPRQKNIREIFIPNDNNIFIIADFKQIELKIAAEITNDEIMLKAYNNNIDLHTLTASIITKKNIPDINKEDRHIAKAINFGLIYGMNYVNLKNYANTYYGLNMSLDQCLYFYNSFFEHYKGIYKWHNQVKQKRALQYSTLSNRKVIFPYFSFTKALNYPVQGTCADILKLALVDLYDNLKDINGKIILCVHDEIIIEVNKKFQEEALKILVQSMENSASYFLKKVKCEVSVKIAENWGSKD

## C#CC(C=CC)OC(=O)c1ccccc1C(=O)O (stereo not shown) [Molecule 61, CC=CC(OC(=O)c1ccccc1C(=O)O)C#C]
186 hits, DNA Pol (screen value), unit not given
  DNA Pol: 84
'DNA Pol' (screen value), unit not given
  DNA Pol: 84
DRC-1, read at 10', concentration 2.5
  % inhibition Apo pol 10' 2.5: 8.856%
DRC-1, read at 10', concentration 5
  % inhibition Apo pol 10' 5: 15.4135%
DRC-1, read at 10', concentration 10
  % inhibition Apo pol 10' 10: 32.6686%
DRC-1, read at 10', concentration 20
  % inhibition Apo pol 10' 20: 51.5021%
DRC-1, read at 10', concentration 40
  % inhibition Apo pol 10' 40: 73.1045%
DRC-1, read at 10', concentration 80
  % inhibition Apo pol 10' 80: 83.6168%
DRC-1, read at 90', concentration 2.5
  % inhibition Apol 90' 2.5: 1.5571%
DRC-1, read at 90', concentration 5
  % inhibition Apol 90' 5: 4.145%
DRC-1, read at 90', concentration 10
  % inhibition Apol 90' 10: 16.9852%
DRC-1, read at 90', concentration 20
  % inhibition Apol 90' 20: 30.9577%
DRC-1, read at 90', concentration 40
  % inhibition Apol 90' 40: 54.6934%
DRC-1, read at 90', concentration 80
  % inhibition Apol 90' 80: 70.5531%
DRC-1, concentration 2.5
  % inhibition apPOL 180' 2.5: -3.738%
DRC-1, concentration 5
  % inhibition apPOL 180' 5: -3.151%
DRC-1, concentration 10
  % inhibition apPOL 180' 10: 5.1086%
DRC-1, concentration 20
  % inhibition apPOL 180' 20: 14.9685%
DRC-1, concentration 40
  % inhibition apPOL 180' 40: 36.8949%
DRC-1, concentration 80
  % inhibition apPOL 180' 80: 55.2706%
DRC-2, concentration 80
  % inhibition Apo pol 5': 57%
  % inhibition Apol 40': 69%
  % inhibition apPOL 180': 69%
  % inhibition apPOL 180' 80: 69%
DRC-2, concentration 20
  % inhibition ApPOL 90': 48%
  % inhibition apPOL 180' 20: 35%
DRC-2, concentration 40
  % inhibition ApPOL 90': 57%
  % inhibition apPOL 180': 48%
  % inhibition apPOL 180' 40: 48%
DRC-2, concentration 2.5
  % inhibition apPOL 180': -4%
  % inhibition apPOL 180' 2.5: -4%
DRC-2, concentration 5
  % inhibition apPOL 180': -4%
  % inhibition apPOL 180' 5: -4%
DRC-2, read at 5', concentration 2.5
  % inhibition Apo pol 5' 2.5: 3.3%
DRC-2, read at 5', concentration 5
  % inhibition Apo pol 5' 5: 15%
DRC-2, read at 5', concentration 10
  % inhibition Apo pol 5' 10: 33%
DRC-2, read at 5', concentration 20
  % inhibition Apo pol 5' 20: 50%
DRC-2, read at 5', concentration 40
  % inhibition Apo pol 5' 40: 54%
DRC-2, read at 5', concentration 80
  % inhibition Apo pol 5' 80: 57%
DRC-2, read at 40', concentration 2.5
  % inhibition Apol 40' 2.5: 3%
DRC-2, read at 40', concentration 5
  % inhibition Apol 40' 5: 11%
DRC-2, read at 40', concentration 10
  % inhibition Apol 40' 10: 31%
DRC-2, read at 40', concentration 20
  % inhibition Apol 40' 20: 52%
DRC-2, read at 40', concentration 40
  % inhibition Apol 40' 40: 59%
DRC-2, read at 40', concentration 80
  % inhibition Apol 40' 80: 69%
DRC-2, read at 90', concentration 2.5
  % inhibition ApPOL 90' 2.5: 0.76%
DRC-2, read at 90', concentration 5
  % inhibition ApPOL 90' 5: 5.31%
DRC-2, read at 90', concentration 10
  % inhibition ApPOL 90' 10: 26%
DRC-2, read at 90', concentration 20
  % inhibition ApPOL 90' 20: 48%
DRC-2, read at 90', concentration 40
  % inhibition ApPOL 90' 40: 57%
DRC-2, read at 90', concentration 80
  % inhibition ApPOL 90' 80: 71%
DRC-2, concentration 10
  % inhibition apPOL 180' 10: 13%

## O=C(c1c[nH]c2ncccc12)N1CCCC1 [Molecule 63, O=C(c1c[nH]c2c1cccn2)N1CCCC1]
"DNA Pol" of the 186 hits list (screen value)
  DNA Pol: 28
DRC-1, concentration 2.5
  % inhibition Apo pol 10': 5.209%
  % inhibition Apol 90': 5.771%
  % inhibition apPOL 180': 3.366%
DRC-1, concentration 5
  % inhibition Apo pol 10': 6.34%
  % inhibition Apol 90': 3.06%
  % inhibition apPOL 180': -1.279%
DRC-1, concentration 10
  % inhibition Apo pol 10': 30.6254%
  % inhibition Apol 90': 21.9015%
  % inhibition apPOL 180': 12.4312%
DRC-1, concentration 20
  % inhibition Apo pol 10': 50.0486%
  % inhibition Apol 90': 39.4898%
  % inhibition apPOL 180': 25.4337%
DRC-1, concentration 40
  % inhibition Apo pol 10': 59.3862%
  % inhibition Apol 90': 47.3849%
  % inhibition apPOL 180': 33.3219%
DRC-1, concentration 80
  % inhibition Apo pol 10': 75.2483%
  % inhibition Apol 90': 77.404%
  % inhibition apPOL 180': 74.0045%
DRC-2, concentration 2.5
  % inhibition Apo pol 5': 3%
  % inhibition Apol 40': 3.74%
  % inhibition ApPOL 90': 2.81%
  % inhibition apPOL 180': -1%
DRC-2, concentration 5
  % inhibition Apo pol 5': 10%
  % inhibition Apol 40': 11%
  % inhibition ApPOL 90': 10%
  % inhibition apPOL 180': 3.46%
DRC-2, concentration 10
  % inhibition Apo pol 5': 29%
  % inhibition Apol 40': 33%
  % inhibition ApPOL 90': 30%
  % inhibition apPOL 180': 21%
DRC-2, concentration 20
  % inhibition Apo pol 5': 40%
  % inhibition Apol 40': 50%
  % inhibition ApPOL 90': 49%
  % inhibition apPOL 180': 41%
DRC-2, concentration 40
  % inhibition Apo pol 5': 42%
  % inhibition Apol 40': 62%
  % inhibition ApPOL 90': 66%
  % inhibition apPOL 180': 65%
DRC-2, concentration 80
  % inhibition Apo pol 5': 32%
  % inhibition Apol 40': 58%
  % inhibition ApPOL 90': 65%
  % inhibition apPOL 180': 68%
Primary screen value, DNA Pol
  DNA Pol: 28

## O=C1c2ccccc2C(=O)N1Oc1ccc([N+](=O)[O-])c([N+](=O)[O-])c1 [Molecule 66, O=N(=O)c1cc(ccc1N(=O)=O)ON1C(=O)c2c(C1=O)cccc2]
[1]
  DNA Pol: 72
DNA Pol (primary screen value)
  DNA Pol: 72
DRC-1, concentration 2.5
  % inhibition Apo pol 10': 7.12%
  % inhibition Apol 90': 2.278%
  % inhibition apPOL 180': -1.453%
DRC-1, concentration 5
  % inhibition Apo pol 10': 12.8299%
  % inhibition Apol 90': 9.738%
  % inhibition apPOL 180': 3.779%
DRC-1, concentration 10
  % inhibition Apo pol 10': 14.545%
  % inhibition Apol 90': 13.1271%
  % inhibition apPOL 180': 7.291%
DRC-1, concentration 20
  % inhibition Apo pol 10': 24.992%
  % inhibition Apol 90': 22.9091%
  % inhibition apPOL 180': 17.0641%
DRC-1, concentration 40
  % inhibition Apo pol 10': 53.6709%
  % inhibition Apol 90': 49.4397%
  % inhibition apPOL 180': 43.6341%
DRC-1, concentration 80
  % inhibition Apo pol 10': 72.2964%
  % inhibition Apol 90': 69.1434%
  % inhibition apPOL 180': 66.4384%
DRC-2, concentration 2.5
  % inhibition Apo pol 5': 1.26%
  % inhibition Apol 40': 6.34%
  % inhibition ApPOL 90': 5%
  % inhibition apPOL 180': 3%
DRC-2, concentration 5
  % inhibition Apo pol 5': 6%
  % inhibition Apol 40': 11%
  % inhibition ApPOL 90': 9.49%
  % inhibition apPOL 180': 5.62%
DRC-2, concentration 10
  % inhibition Apo pol 5': 12%
  % inhibition Apol 40': 18%
  % inhibition ApPOL 90': 17%
  % inhibition apPOL 180': 13%
DRC-2, concentration 20
  % inhibition Apo pol 5': 27%
  % inhibition Apol 40': 35%
  % inhibition ApPOL 90': 36%
  % inhibition apPOL 180': 32%
DRC-2, concentration 40
  % inhibition Apo pol 5': 40%
  % inhibition Apol 40': 48%
  % inhibition ApPOL 90': 50%
  % inhibition apPOL 180': 48%
DRC-2, concentration 80
  % inhibition Apo pol 5': 51%
  % inhibition Apol 40': 62%
  % inhibition ApPOL 90': 66%
  % inhibition apPOL 180': 68%

## CC(NC(=O)Cc1cc(=O)[nH]c(SCc2cccc(Cl)c2)n1)c1ccccc1 (stereo not shown) [Molecule 67, O=C(NC(c1ccccc1)C)Cc1nc(SCc2cccc(c2)Cl)[nH]c(=O)c1]
[1]
  DNA Pol: 46
DNA Pol (primary screen value)
  DNA Pol: 46
DRC-1, concentration 2.5
  % inhibition Apo pol 10': -1.6671%
  % inhibition Apol 90': -5.257%
  % inhibition apPOL 180': -10.8024%
DRC-1, concentration 5
  % inhibition Apo pol 10': 0%
  % inhibition Apol 90': -6.461%
  % inhibition apPOL 180': -10.8936%
DRC-1, concentration 10
  % inhibition Apo pol 10': 11.4347%
  % inhibition Apol 90': 1.923%
  % inhibition apPOL 180': -3.791%
DRC-1, concentration 20
  % inhibition Apo pol 10': 48.0532%
  % inhibition Apol 90': 26.5805%
  % inhibition apPOL 180': 10.3203%
DRC-1, concentration 40
  % inhibition Apo pol 10': 64.8608%
  % inhibition Apol 90': 38.5858%
  % inhibition apPOL 180': 18.891%
DRC-1, concentration 80
  % inhibition Apo pol 10': 85.5547%
  % inhibition Apol 90': 80.0323%
  % inhibition apPOL 180': 71.4283%
DRC-2, concentration 2.5
  % inhibition Apo pol 5': 0.743%
  % inhibition Apol 40': 0.551%
  % inhibition ApPOL 90': 0.178%
  % inhibition apPOL 180': -3%
DRC-2, concentration 5
  % inhibition Apo pol 5': -0.394%
  % inhibition Apol 40': 0.92%
  % inhibition ApPOL 90': -1%
  % inhibition apPOL 180': -6%
DRC-2, concentration 10
  % inhibition Apo pol 5': 30%
  % inhibition Apol 40': 36%
  % inhibition ApPOL 90': 32%
  % inhibition apPOL 180': 20%
DRC-2, concentration 20
  % inhibition Apo pol 5': 33%
  % inhibition Apol 40': 49%
  % inhibition ApPOL 90': 48%
  % inhibition apPOL 180': 37%
DRC-2, concentration 40
  % inhibition Apo pol 5': 27%
  % inhibition Apol 40': 52%
  % inhibition ApPOL 90': 54%
  % inhibition apPOL 180': 49%
DRC-2, concentration 80
  % inhibition Apo pol 5': 20%
  % inhibition Apol 40': 55%
  % inhibition ApPOL 90': 64%
  % inhibition apPOL 180': 70%
